From ChEMBL document CHEMBL1143092, “Identification of novel benzimidazole series of potent and selective ORL1 antagonists” (Bioorg Med Chem Lett, 2008)

Legend:
Nociceptin receptor [1] = biological target: T1, Nociceptin receptor (Homo sapiens, UniProt P41146); test: Displacement of [125I]Tyr14-NC from human ORL1 receptor expressed in CHO cell membrane; assay type: cell membranes
Nociceptin receptor [2] = biological target: T1, Nociceptin receptor; test: Antagonist activity at human ORL1 receptor expressed in CHO cell membrane by [35S]GTP-gamma-S binding assay; assay type: functional, cell membranes
Mu-type opioid receptor = Mu-type opioid receptor (Homo sapiens, UniProt P35372); test: Displacement of [3H]diprenorphin from human cloned mu opioid receptor expressed in CHO cell membrane; assay type: cell membranes
Mu-type opioid receptor, sequence (P35372 whole entry): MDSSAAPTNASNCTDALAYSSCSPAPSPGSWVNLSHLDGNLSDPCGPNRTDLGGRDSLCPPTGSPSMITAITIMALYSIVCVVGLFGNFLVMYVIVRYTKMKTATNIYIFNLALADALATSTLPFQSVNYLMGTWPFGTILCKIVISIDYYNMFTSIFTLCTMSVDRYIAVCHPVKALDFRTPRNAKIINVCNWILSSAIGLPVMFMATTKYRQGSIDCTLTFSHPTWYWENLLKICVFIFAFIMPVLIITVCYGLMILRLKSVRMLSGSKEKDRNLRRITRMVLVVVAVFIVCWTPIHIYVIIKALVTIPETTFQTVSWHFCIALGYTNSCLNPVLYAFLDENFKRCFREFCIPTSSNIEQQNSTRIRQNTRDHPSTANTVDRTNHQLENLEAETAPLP

[3] = biological target: Kappa-type opioid receptor (Homo sapiens, UniProt P41145); test: Displacement of [3H]U-69593 from human cloned kappa opioid receptor expressed in CHO cell membrane; assay type: cell membranes
Kappa-type opioid receptor, sequence (P41145 whole entry): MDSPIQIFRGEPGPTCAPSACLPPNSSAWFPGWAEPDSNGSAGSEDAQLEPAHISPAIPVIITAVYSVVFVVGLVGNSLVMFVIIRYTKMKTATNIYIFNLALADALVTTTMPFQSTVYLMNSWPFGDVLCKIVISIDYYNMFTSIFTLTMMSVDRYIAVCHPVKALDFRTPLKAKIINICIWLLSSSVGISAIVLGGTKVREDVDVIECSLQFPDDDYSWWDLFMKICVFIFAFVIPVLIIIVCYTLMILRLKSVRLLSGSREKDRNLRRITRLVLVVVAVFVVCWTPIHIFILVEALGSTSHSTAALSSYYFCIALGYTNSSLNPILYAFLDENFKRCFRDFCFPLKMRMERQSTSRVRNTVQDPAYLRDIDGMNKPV

Liver microsomes = test: Metabolic stability in human liver microsomes; assay type: ADME, Microsome
[4] = biological target: Delta-type opioid receptor (Homo sapiens, UniProt P41143); test: Displacement of [3H]naltrindole from human cloned delta opioid receptor expressed in CHO cell membrane; assay type: cell membranes
Delta-type opioid receptor, sequence (P41143 whole entry): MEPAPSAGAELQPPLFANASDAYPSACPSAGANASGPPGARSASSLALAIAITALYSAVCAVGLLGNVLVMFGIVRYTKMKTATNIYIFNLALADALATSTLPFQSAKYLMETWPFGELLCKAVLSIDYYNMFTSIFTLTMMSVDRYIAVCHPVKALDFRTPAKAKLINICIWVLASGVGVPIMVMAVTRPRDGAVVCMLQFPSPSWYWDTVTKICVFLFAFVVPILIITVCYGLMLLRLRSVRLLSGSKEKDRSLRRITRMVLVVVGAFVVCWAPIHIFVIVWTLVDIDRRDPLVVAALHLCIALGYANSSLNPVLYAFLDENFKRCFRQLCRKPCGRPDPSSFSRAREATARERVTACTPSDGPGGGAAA

T1 sequence (P41146 whole entry): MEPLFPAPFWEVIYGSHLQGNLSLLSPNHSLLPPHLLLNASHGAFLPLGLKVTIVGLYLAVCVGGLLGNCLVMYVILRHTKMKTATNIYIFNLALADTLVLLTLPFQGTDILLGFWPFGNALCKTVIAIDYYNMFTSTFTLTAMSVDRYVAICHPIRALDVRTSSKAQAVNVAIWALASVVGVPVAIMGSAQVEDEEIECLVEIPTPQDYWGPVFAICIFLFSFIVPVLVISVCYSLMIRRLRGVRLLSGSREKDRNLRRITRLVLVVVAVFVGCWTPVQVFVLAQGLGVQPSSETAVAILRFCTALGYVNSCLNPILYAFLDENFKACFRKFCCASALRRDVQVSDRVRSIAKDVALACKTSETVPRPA

Compound	IC50 (Nociceptin receptor [1]) [nM]	IC50 (Nociceptin receptor [2]) [nM]	IC50 (Mu-type opioid receptor) [nM]	IC50 [3] [nM]	Stability (Liver microsomes) [%]	IC50 [4] [nM]
CCC(CC)Sc1nc2cc(C#N)c(N3CCNCC3)cc2[nH]1	15	78				
CN1CCN(c2cc3[nH]c(SCc4ccc(F)cc4)nc3cc2F)CC1	910					
Fc1ccc(CSc2nc3cc(F)c(N4CCNCC4)cc3[nH]2)cc1	63					
Fc1ccc(CSc2nc3cc(F)c(N4CCN(CC5CCCCCCC5)CC4)cc3[nH]2)cc1	> 10000					
CC(C)(C)Sc1nc2cc(Cl)c(N3CCN(CCO)CC3)cc2[nH]1	17	21	4400	120		
CCC(CC)Sc1nc2cc(F)c(N3CCNCC3)cc2[nH]1	4.7	690				
Cc1cccc(CSc2nc3cc(F)c(N4CCNCC4)cc3[nH]2)c1	180					
Fc1cc2nc(SCc3cccc(Cl)c3Cl)[nH]c2cc1N1CCNCC1	6	140				
Fc1cc2nc(SCc3ccccc3Cl)[nH]c2cc1N1CCNCC1	23	380				
Fc1cc2nc(SCc3c(Cl)cccc3Cl)[nH]c2cc1N1CCNCC1	55	2700				
CCC(CC)Sc1nc2ccc(N3CCNCC3)cc2[nH]1	320					
Fc1cc2nc(SCC3CCCCC3)[nH]c2cc1N1CCNCC1	17	930				
CCC(CC)Sc1nc2cc(Cl)c(N3CCN(CC)CC3)cc2[nH]1	10	3.9			31	
CC(C)Sc1nc2cc(Cl)c(N3CCN(CCO)CC3)cc2[nH]1	120		3100	60		
CC1(Sc2nc3cc(Cl)c(N4CCN(CCO)CC4)cc3[nH]2)CCCCC1	1.8	1.8	1400	88		
CCC(C)(CC)Sc1nc2cc(Cl)c(N3CCN(CCO)CC3)cc2[nH]1	1.2	0.66	2800	170		> 1000
CCC(C)(C)Sc1nc2cc(Cl)c(N3CCN(CCO)CC3)cc2[nH]1	5.6	2.5	3500	160		
Fc1cc2nc(SCc3ccccc3)[nH]c2cc1N1CCNCC1	140					
Cc1ccccc1CSc1nc2cc(F)c(N3CCNCC3)cc2[nH]1	78	1700				
O=S(=O)(Cc1cccc(Cl)c1Cl)c1nc2cc(F)c(N3CCNCC3)cc2[nH]1	240					
CCC(CC)Sc1nc2cc(Cl)c(N3CCN(CCO)CC3)cc2[nH]1	9.7	3.3	3100	60	51	> 1000
Cc1ccc(CSc2nc3cc(F)c(N4CCNCC4)cc3[nH]2)cc1	31					
CCC(CC)Sc1nc2cc(C(C)=O)c(N3CCNCC3)cc2[nH]1	3100					
CSc1nc2cc(F)c(N3CCNCC3)cc2[nH]1	2900					
OCCN1CCN(c2cc3[nH]c(SC4CCCCC4)nc3cc2Cl)CC1	20	20	520	31		
[O-][S+](Cc1cccc(Cl)c1Cl)c1nc2cc(F)c(N3CCNCC3)cc2[nH]1 (centres undefined)	2900					
Fc1ccc(CSc2nc3cc(F)c(N4CCN(Cc5ccccc5)CC4)cc3[nH]2)cc1	8200					
